Laboratory results reported in ChEMBL document CHEMBL4304811, “Development of a Water-Soluble Indolylmaleimide Derivative IM-93 Showing Dual Inhibition of Ferroptosis and NETosis” (ACS Med Chem Lett, 2019).

What was measured:
[1] = test system: Epidermal growth factor receptor (Homo sapiens), P00533 [UNDEFINED MUTATION]; assay: Binding affinity to human partial length EGFR L747-T751del/Sins mutant expressed in bacterial expression system assessed as residual binding level at 10 uM by Kinomescan method relative to control
[2] = test system: Mast/stem cell growth factor receptor Kit (Homo sapiens), P10721 [UNDEFINED MUTATION]; assay: Binding affinity to human partial length KIT V559D/V654 double mutant (Y545 to D952 residues) expressed in bacterial expression system assessed as residual binding level at 10 uM by Kinomescan method relative to control
[3] = molecular target: Cyclin-dependent kinase-like 2 (Homo sapiens) (UniProt Q92772); assay: Binding affinity to wild-type human partial length CDKL2 (M1 to D327 residues) expressed in bacterial expression system assessed as residual binding level at 10 uM by Kinomescan method relative to control
[4] = molecular target: Serine/threonine-protein kinase STK11 (Homo sapiens) (UniProt Q15831); assay: Binding affinity to wild-type human full length LKB1 (M1 to Q433 residues) expressed in bacterial expression system assessed as residual binding level at 10 uM by Kinomescan method relative to control
[5] = molecular target: Casein kinase I isoform gamma-3 (Homo sapiens) (UniProt Q9Y6M4); assay: Binding affinity to wild-type human full length CSNK1G3 (M1 to K447 residues) expressed in bacterial expression system assessed as residual binding level at 10 uM by Kinomescan method relative to control
[6] = molecular target: Mitogen-activated protein kinase kinase kinase kinase 3 (Homo sapiens) (UniProt Q8IVH8); assay: Binding affinity to wild-type human partial length MAP4K3 (M1 to D301 residues) expressed in bacterial expression system assessed as residual binding level at 10 uM by Kinomescan method relative to control
[7] = molecular target: Ephrin type-A receptor 6 (Homo sapiens) (UniProt Q9UF33); assay: Binding affinity to wild-type human partial length EPHA6 (Y700 to E1046 residues) expressed in bacterial expression system assessed as residual binding level at 10 uM by Kinomescan method relative to control
[8] = molecular target: Cyclin-dependent kinase 13 (Homo sapiens) (UniProt Q14004); assay: Binding affinity to wild-type human partial length CDC2L5 (H675 to S1054 residues) expressed in mammalian expression system assessed as residual binding level at 10 uM by Kinomescan method relative to control
[9] = molecular target: Serine/threonine-protein kinase PRP4 homolog (Homo sapiens) (UniProt Q13523); assay: Binding affinity to wild-type human partial length PRP4 (D657 to I1007 residues) expressed in bacterial expression system assessed as residual binding level at 10 uM by Kinomescan method relative to control
[10] = molecular target: Calcium/calmodulin-dependent protein kinase kinase 1 (Homo sapiens) (UniProt Q8N5S9); assay: Binding affinity to wild-type human partial length CAMKK1 (R65 to E414 residues) expressed in bacterial expression system assessed as residual binding level at 10 uM by Kinomescan method relative to control
[11] = molecular target: Tyrosine-protein kinase Mer (Homo sapiens) (UniProt Q12866); assay: Binding affinity to wild-type human partial length MERTK (R557 to L884 residues) expressed in bacterial expression system assessed as residual binding level at 10 uM by Kinomescan method relative to control
[12] = molecular target: RAC-gamma serine/threonine-protein kinase (Homo sapiens) (UniProt Q9Y243); assay: Binding affinity to wild-type human partial length AKT3 expressed in bacterial expression system assessed as residual binding level at 10 uM by Kinomescan method relative to control
[13] = test system: Hepatocyte growth factor receptor (Homo sapiens), P08581 [Y1235D]; assay: Binding affinity to human partial length MET Y1235D mutant (D1010 to S1367 residues) expressed in bacterial expression system assessed as residual binding level at 10 uM by Kinomescan method relative to control
[14] = molecular target: MAP/microtubule affinity-regulating kinase 3 (Homo sapiens) (UniProt P27448); assay: Binding affinity to wild-type human full length MARK3 (M1 to L729 residues) expressed in bacterial expression system assessed as residual binding level at 10 uM by Kinomescan method relative to control
[15] = molecular target: Cyclin-dependent kinase 5 (Homo sapiens) (UniProt Q00535); assay: Binding affinity to wild-type human full length CDK5 (M1 to P292 residues) expressed in bacterial expression system assessed as residual binding level at 10 uM by Kinomescan method relative to control
[16] = test system: Epidermal growth factor receptor (Homo sapiens), P00533 [L861Q]; assay: Binding affinity to human partial length EGFR L861Q mutant (R669 to V1011 residues) expressed in bacterial expression system assessed as residual binding level at 10 uM by Kinomescan method relative to control
[17] = molecular target: Megakaryocyte-associated tyrosine-protein kinase (Homo sapiens) (UniProt P42679); assay: Binding affinity to wild-type human full length CTK (M43 to P508 residues) expressed in mammalian expression system assessed as residual binding level at 10 uM by Kinomescan method relative to control
[18] = test system: Receptor-type tyrosine-protein kinase FLT3 (Homo sapiens), P36888 [R834Q]; assay: Binding affinity to human partial length FLT3 R834Q mutant (V592 to Y969 residues) expressed in mammalian expression system assessed as residual binding level at 10 uM by Kinomescan method relative to control
[19] = molecular target: Serine/threonine-protein kinase LATS1 (Homo sapiens) (UniProt O95835); assay: Binding affinity to wild-type human partial length LATS1 (Q678 to V1130 residues) expressed in bacterial expression system assessed as residual binding level at 10 uM by Kinomescan method relative to control
[20] = test system: Tyrosine-protein kinase ABL1 (Homo sapiens), P00519 [E255K]; assay: Binding affinity to human phosphorylated ABL1 E255K mutant (S229 to K512 residues) expressed in mammalian expression system assessed as residual binding level at 10 uM by Kinomescan method relative to control
[21] = molecular target: Cyclin-dependent kinase 16 (Homo sapiens) (UniProt Q00536); assay: Binding affinity to wild-type human partial length PCTK1 (G160 to A474 residues) expressed in mammalian expression system assessed as residual binding level at 10 uM by Kinomescan method relative to control
[22] = molecular target: Serine/threonine-protein kinase 3 (Homo sapiens) (UniProt Q13188); assay: Binding affinity to wild-type human partial length MST2 (D17 to E318 residues) expressed in bacterial expression system assessed as residual binding level at 10 uM by Kinomescan method relative to control
[23] = molecular target: Dual specificity protein kinase CLK3 (Homo sapiens) (UniProt P49761); assay: Binding affinity to wild-type human full length CLK3 (M1 to R490 residues) expressed in bacterial expression system assessed as residual binding level at 10 uM by Kinomescan method relative to control
[24] = molecular target: MAP kinase-activated protein kinase 5 (Homo sapiens) (UniProt Q8IW41); assay: Binding affinity to wild-type human partial length MAPKAPK5 (M1 to D322 residues) expressed in mammalian expression system assessed as residual binding level at 10 uM by Kinomescan method relative to control

RAC-gamma serine/threonine-protein kinase (Homo sapiens), sequence (Q9Y243 whole entry, the tested form may be a part): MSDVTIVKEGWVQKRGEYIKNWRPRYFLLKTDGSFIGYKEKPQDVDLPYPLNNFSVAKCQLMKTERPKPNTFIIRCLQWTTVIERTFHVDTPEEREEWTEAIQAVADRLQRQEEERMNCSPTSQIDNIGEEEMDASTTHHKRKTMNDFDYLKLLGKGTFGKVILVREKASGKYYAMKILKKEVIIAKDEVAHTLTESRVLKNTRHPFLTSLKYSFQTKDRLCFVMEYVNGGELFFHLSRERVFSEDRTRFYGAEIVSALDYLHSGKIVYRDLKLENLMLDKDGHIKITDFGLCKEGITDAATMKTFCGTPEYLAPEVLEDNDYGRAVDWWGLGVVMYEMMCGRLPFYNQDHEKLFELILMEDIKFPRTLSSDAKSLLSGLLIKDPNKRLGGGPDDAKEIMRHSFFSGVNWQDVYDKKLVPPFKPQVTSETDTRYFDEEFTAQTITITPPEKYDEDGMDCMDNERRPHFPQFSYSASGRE
Cyclin-dependent kinase 5 (Homo sapiens), sequence (Q00535 whole entry, looked up, the tested form may be a part): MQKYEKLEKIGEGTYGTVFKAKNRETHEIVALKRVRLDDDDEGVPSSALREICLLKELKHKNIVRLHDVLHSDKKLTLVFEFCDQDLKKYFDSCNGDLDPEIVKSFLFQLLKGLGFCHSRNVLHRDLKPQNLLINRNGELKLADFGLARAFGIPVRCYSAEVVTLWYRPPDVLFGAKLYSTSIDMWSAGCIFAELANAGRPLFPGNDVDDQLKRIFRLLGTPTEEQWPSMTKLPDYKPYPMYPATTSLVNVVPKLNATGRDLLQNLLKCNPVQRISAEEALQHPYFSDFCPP
Serine/threonine-protein kinase STK11 (Homo sapiens), sequence (Q15831 whole entry, the tested form may be a part, canonical isoform): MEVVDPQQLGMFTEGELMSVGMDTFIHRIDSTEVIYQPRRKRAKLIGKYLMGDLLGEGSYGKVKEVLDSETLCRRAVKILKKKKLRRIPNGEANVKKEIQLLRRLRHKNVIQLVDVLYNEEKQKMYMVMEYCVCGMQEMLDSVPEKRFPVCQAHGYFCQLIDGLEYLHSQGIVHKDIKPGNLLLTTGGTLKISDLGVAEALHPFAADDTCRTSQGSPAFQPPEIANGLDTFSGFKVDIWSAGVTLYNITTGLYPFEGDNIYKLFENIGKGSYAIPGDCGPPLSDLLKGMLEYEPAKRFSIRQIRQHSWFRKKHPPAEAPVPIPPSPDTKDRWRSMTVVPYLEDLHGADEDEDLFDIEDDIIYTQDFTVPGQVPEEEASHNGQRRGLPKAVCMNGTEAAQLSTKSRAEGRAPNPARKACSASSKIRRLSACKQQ
Mitogen-activated protein kinase kinase kinase kinase 3 (Homo sapiens), sequence (Q8IVH8 whole entry, the tested form may be a part): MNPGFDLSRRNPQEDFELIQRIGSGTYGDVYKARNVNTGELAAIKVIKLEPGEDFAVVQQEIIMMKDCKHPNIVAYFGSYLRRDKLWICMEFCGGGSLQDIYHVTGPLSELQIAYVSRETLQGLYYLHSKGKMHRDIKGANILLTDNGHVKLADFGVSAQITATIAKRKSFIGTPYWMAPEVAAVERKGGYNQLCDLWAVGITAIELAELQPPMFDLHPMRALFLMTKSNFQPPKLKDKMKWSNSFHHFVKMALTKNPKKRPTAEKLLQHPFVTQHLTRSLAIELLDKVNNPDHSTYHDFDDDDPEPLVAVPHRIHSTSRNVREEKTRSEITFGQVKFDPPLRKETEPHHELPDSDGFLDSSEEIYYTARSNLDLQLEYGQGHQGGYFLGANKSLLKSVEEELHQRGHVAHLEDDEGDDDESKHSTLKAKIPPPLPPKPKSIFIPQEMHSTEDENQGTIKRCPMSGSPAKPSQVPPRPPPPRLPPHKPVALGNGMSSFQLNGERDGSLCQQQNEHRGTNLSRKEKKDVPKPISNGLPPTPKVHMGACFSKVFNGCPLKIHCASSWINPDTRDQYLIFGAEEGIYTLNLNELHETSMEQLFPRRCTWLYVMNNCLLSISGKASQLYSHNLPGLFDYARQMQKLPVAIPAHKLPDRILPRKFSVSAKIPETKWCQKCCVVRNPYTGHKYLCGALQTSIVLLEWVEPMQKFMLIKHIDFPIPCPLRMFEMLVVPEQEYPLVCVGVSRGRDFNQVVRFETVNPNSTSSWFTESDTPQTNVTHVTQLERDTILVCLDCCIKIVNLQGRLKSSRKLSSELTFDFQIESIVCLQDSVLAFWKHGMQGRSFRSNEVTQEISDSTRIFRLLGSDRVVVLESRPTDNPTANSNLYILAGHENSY
Ephrin type-A receptor 6 (Homo sapiens), sequence (Q9UF33 whole entry, the tested form may be a part): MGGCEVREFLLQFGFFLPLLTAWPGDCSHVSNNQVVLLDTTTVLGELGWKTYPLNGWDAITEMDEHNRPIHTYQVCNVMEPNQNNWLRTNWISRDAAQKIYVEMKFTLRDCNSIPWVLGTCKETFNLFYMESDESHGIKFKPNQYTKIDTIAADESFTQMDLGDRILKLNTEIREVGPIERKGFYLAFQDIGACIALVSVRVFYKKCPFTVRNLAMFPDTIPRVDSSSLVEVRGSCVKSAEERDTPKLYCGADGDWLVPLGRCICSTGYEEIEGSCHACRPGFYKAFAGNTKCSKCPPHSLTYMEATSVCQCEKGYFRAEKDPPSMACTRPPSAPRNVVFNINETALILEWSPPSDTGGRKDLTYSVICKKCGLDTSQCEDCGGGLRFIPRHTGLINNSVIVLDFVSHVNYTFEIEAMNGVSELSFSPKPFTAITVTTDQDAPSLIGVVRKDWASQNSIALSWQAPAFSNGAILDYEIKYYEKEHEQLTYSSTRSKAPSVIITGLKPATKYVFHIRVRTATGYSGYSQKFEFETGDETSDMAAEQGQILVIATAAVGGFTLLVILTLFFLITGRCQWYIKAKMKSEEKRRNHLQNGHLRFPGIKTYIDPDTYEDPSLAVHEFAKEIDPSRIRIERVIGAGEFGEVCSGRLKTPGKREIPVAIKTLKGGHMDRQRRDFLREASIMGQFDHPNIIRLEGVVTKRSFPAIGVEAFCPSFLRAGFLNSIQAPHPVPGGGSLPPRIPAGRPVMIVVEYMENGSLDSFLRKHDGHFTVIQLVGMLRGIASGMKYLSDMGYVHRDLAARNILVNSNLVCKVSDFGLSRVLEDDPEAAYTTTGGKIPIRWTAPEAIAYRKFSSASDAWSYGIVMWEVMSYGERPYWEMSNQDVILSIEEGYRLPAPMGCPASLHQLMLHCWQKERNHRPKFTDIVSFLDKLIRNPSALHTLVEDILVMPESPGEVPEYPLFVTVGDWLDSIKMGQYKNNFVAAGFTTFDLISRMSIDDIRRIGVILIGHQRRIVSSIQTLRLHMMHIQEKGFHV
Cyclin-dependent kinase 13 (Homo sapiens), sequence (Q14004 whole entry, looked up, the tested form may be a part): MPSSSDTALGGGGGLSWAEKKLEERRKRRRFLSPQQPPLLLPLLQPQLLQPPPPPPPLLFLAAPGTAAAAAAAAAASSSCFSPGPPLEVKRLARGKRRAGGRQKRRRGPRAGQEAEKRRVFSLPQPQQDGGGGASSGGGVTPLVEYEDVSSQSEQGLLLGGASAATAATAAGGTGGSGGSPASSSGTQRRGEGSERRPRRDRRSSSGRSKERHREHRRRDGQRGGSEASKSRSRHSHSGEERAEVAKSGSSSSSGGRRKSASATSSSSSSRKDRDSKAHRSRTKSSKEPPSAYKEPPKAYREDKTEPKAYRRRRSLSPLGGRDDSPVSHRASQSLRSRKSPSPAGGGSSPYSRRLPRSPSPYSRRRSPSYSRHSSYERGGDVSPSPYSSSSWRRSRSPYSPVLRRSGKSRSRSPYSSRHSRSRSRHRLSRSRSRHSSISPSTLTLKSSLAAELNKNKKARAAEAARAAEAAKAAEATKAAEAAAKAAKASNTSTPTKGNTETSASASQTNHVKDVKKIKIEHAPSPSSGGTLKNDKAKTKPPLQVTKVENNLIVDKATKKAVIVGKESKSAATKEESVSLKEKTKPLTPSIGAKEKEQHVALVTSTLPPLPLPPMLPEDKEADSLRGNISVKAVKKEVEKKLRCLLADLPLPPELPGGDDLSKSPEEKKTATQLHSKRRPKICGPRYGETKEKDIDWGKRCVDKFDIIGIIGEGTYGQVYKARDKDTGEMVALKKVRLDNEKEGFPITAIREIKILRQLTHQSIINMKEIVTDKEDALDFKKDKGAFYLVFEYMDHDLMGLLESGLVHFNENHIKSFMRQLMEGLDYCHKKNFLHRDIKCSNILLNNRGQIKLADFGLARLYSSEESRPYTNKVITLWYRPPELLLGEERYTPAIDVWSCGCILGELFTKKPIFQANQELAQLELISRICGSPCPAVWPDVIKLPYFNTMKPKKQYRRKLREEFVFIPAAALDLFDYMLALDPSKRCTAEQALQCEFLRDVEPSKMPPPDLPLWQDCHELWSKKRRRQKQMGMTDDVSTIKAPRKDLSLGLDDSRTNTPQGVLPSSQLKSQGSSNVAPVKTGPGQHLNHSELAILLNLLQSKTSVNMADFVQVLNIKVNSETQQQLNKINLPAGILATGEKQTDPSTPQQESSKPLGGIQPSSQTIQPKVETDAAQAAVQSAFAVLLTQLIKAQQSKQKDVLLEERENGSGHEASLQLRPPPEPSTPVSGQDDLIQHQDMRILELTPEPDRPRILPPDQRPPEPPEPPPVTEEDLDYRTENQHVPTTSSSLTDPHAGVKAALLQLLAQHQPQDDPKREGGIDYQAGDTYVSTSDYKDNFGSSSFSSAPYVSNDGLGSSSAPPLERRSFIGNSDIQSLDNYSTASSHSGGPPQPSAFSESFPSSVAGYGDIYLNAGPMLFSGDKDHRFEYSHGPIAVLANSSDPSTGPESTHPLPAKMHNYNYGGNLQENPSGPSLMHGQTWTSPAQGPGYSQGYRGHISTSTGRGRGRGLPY

With CC(C)N1C(=O)C(NCCCN(C)C)=C(c2cn(C)c3ccccc23)C1=O.Cl the Activity [1] was 94%, the Activity [2] was 95% and the Activity [3] was 91%. The Activity [4] was 91%, the Activity [5] was 96% and the Activity [6] was 96%. For the same compound, the Activity [7] was 100%, the Activity [8] was 99% and the Activity [9] was 86%. For the same compound, the Activity [10] was 93%, the Activity [11] was 71% and the Activity [12] was 99%. For the same compound, the Activity [13] was 99%, the Activity [14] was 78% and the Activity [15] was 96%. For the same compound, the Activity [16] was 80%, the Activity [17] was 83% and the Activity [18] was 100%. For the same compound, the Activity [19] was 96%, the Activity [20] was 89% and the Activity [21] was 92%. The Activity [22] was 100%, the Activity [23] was 92% and the Activity [24] was 71%.
